Results on nine molecules are retold here after patent US10526295B2, “Nuclear transport modulators and uses thereof” (Karyopharm Therapeutics Inc., priority 2015, dated 2020).

Common to all, as to format: cell-based
One assay deals with Z138 cells. In words: MTT cell proliferation assay (Z138). To be noted: Homo sapiens, Z-138, approximately 64-72 hours incubation, 1 nM to 30 μM. As for the experimental part: (§1) The MTT cell proliferation assay was used to study the cytotoxic properties of the compounds. The assay was performed according to the method described by Roche Molecular Biochemicals, with minor modifications. The assay is based on the cleavage of the tetrazolium salt, MTT, in the presence of an electron-coupling reagent. The water-insoluble formazan salt produced must be solubilized in an additional step. Cells grown in a 96-well tissue culture plate were incubated with the MTT solution for approximately 4 hours. After this incubation period, a water-insoluble formazan dye formed. After solubilization, the formazan dye was quantitated using a scanning multi-well spectrophotometer (ELISA reader). […] The cells were seeded at 5,000-10,000 cells in each well of 96-well plate in 100 μL of fresh culture medium and were allowed to attach overnight. The stock solutions of the compounds were diluted in 100 μL cell culture medium to obtain eight concentrations of each test compound, ranging from 1 nM to 30 μM. […] All optical densities were measured at 490 nm using a Vmax Kinetic Microplate Reader (Molecular Devices). In most cases, the assay was performed in duplicate and the results were presented as a mean percent inhibition to the negative control±SE. The following formula was used to calculate the percent of inhibition: Inhibition (%)=(1−(ODo/OD))×100.
(§2) The compounds were tested against Z138, MM1S and 3T3 cells. The Z138 cell line is a mature B-cell acute lymphoblastic leukemia cell line derived from a patient with chronic lumphocytic leukemia. The MM1S cell line was established from the peripheral blood of a human multiple myeloma patient. 3T3 cells are standard fibroblast cells; they were originally isolated from Swiss mouse embryo tissue.

Another assay concerns MM1S cells. Description: MTT cell proliferation assay (MM1S). The following applies: Homo sapiens, MM1.S; MM1S multiple myeloma cells; approximately 64-72 hours incubation; 1 nM to 30 μM. As for the experimental part:
as §1, §2

The next assay deals with 3T3 cells. In words: MTT cell proliferation assay (3T3). The following applies: Mus musculus, NIH3T3; 3T3 fibroblast cells; approximately 64-72 hours incubation; 1 nM to 30 μM. As for the experimental part:
as §1, §2

A value given as a limit tells only on which side of the number the result lay.

For the molecule `NC(=O)/C(=C/n1cnc(-c2cc(C(F)(F)F)cc(C(F)(F)F)c2)n1)c1cccc(S(=O)(=O)N2CCC(F)CC2)c1` [Compound 120, (E)-3-(3-(3,5-bis(trifluoromethyl)phenyl)-1H-1,2,4-triazol-1-yl)-2-(3-(4-fluoropiperidin-1-ylsulfonyl)phenyl)acrylamide], the figures for the IC50 with Z138 cells, in the assay on MM1S cells and in the assay with 3T3 cells were 0.1 to 5 µM, 0.1 to 5 µM and above 30 µM, respectively.
For the molecule `NC(=O)/C(=C/n1cnc(-c2cc(C(F)(F)F)cc(C(F)(F)F)c2)n1)c1cccc(S(=O)(=O)N2CC(F)(F)C2)c1` [Compound 121, (E)-3-(3-(3,5-bis(trifluoromethyl)phenyl)-1H-1,2,4-triazol-1-yl)-2-(3-(3,3-difluoroazetidin-1-ylsulfonyl)phenyl)acrylamide], the half-maximal inhibitory concentration (IC50) with Z138 cells is 0.1 to 5 µM; in the assay with MM1S cells, 0.1 to 5 µM; with 3T3 cells it was above 30 µM.
For `NC(=O)/C(=C/n1cnc(-c2cc(C(F)(F)F)cc(C(F)(F)F)c2)n1)c1cccc(S(=O)(=O)N2CCC(F)(F)CC2)c1` [Compound 122, (E)-3-(3-(3,5-bis(trifluoromethyl)phenyl)-1H-1,2,4-triazol-1-yl)-2-(3-(4,4-difluoropiperidin-1-ylsulfonyl)phenyl)acrylamide], the results for the IC50 in the assay on Z138 cells, in the assay with MM1S cells and with 3T3 cells were 0.1 to 5 µM, 0.1 to 5 µM and above 30 µM, respectively.
In the case of `NC(=O)/C(=C/n1cnc(-c2cc(C(F)(F)F)cc(C(F)(F)F)c2)n1)c1cccc(S(=O)(=O)N2CC(F)C2)c1` [Compound 123, (E)-3-(3-(3,5-bis(trifluoromethyl)phenyl)-1H-1,2,4-triazol-1-yl)-2-(3-(3-fluoroazetidin-1-ylsulfonyl)phenyl)acrylamide], the IC50 is 0.1 to 5 µM in the assay on Z138 cells, 0.1 to 5 µM in the assay on MM1S cells and above 30 µM in the assay with 3T3 cells.
In the case of `CN1CCN(S(=O)(=O)c2cccc(/C(=C\n3cnc(-c4cc(C(F)(F)F)cc(C(F)(F)F)c4)n3)C(N)=O)c2)CC1` [Compound 124, (E)-3-(3-(3,5-bis(trifluoromethyl)phenyl)-1H-1,2,4-triazol-1-yl)-2-(3-(4-methylpiperazin-1-ylsulfonyl)phenyl)acrylamide], the IC50 in the assay with Z138 cells was 0.1 to 5 µM; in the assay on MM1S cells it was 0.1 to 5 µM; in the assay on 3T3 cells, above 30 µM.
As for `NC(=O)/C(=C/n1cnc(-c2cc(C(F)(F)F)cc(C(F)(F)F)c2)n1)c1cccc(S(=O)(=O)N2CCCC2)c1` [Compound 125, (E)-3-(3-(3,5-bis(trifluoromethyl)phenyl)-1H-1,2,4-triazol-1-yl)-2-(3-(pyrrolidin-1-ylsulfonyl)phenyl)acrylamide], the 50% inhibitory concentration (IC50) in the assay on Z138 cells is 0.1 to 5 µM; in the assay with MM1S cells, 0.1 to 5 µM; in the assay on 3T3 cells, above 30 µM.
As to `NC(=O)/C(=C/n1cnc(-c2cc(C(F)(F)F)cc(C(F)(F)F)c2)n1)c1cccc(S(=O)(=O)N2CCC(C(F)(F)F)CC2)c1` [Compound 126, (E)-3-(3-(3,5-bis(trifluoromethyl)phenyl)-1H-1,2,4-triazol-1-yl)-2-(3-(4-(trifluoromethyl)piperidin-1-ylsulfonyl)phenyl)acrylamide], the results for the IC50 with Z138 cells, in the assay with MM1S cells and with 3T3 cells were 0.1 to 5 µM, 5 to 30 µM and above 30 µM, respectively.
For `NC(=O)/C(=C/n1cnc(-c2cc(C(F)(F)F)cc(C(F)(F)F)c2)n1)c1cccc(S(=O)(=O)N2CCC2)c1` [Compound 127, (E)-2-(3-(azetidin-1-ylsulfonyl)phenyl)-3-(3-(3,5-bis(trifluoromethyl)phenyl)-1H-1,2,4-triazol-1-yl)acrylamide], the IC50 in the assay on Z138 cells, in the assay with MM1S cells and with 3T3 cells was 0.1 to 5 µM throughout.
Consider `NC(=O)/C(=C/n1cnc(-c2cc(C(F)(F)F)cc(C(F)(F)F)c2)n1)c1cccc(S(=O)(=O)N2CCC(F)(F)C2)c1` [Compound 128, (E)-3-(3-(3,5-bis(trifluoromethyl)phenyl)-1H-1,2,4-triazol-1-yl)-2-(3-(3,3-difluoropyrrolidin-1-ylsulfonyl)phenyl)acrylamide], for which the IC50 is 0.1 to 5 µM with Z138 cells, above 30 µM in the assay on MM1S cells and 0.1 to 5 µM in the assay on 3T3 cells.
